This is an account of results in patent publication EP2277860B1, “Compositions comprising sulfonated estolides and alkyl ester sulfonates, methods of making them, and compositions and processes employing them” (STEPAN COMPANY, priority 2009, dated 2011).

The data set can be described thus: CMC via the Wilhelmy plate technique. It counts as physicochemical. The method, then:
Not to be bound by theory, surfactants with low CMC values tend to be more mild to enzymes based on low monomer concentrations in solution which interfere with enzyme stability. The measured CMC, via the Wilhelmy plate technique, of SHP is 30 mg/L while that of the sodium salt of AES is 80 mg/L and NaLAS is 900 mg/L.

In turn, “linear alkylbenzene sulfonic acid, sodium salt [NaLAS]” displayed a CMC of 900 mg/L.
